{"source": "patent US8440464B2", "about": "“Method for evaluation or selection of adiponectin secretion regulator” (Kao Corporation, priority 2008, dated 2013)", "system": "plasma adiponectin level", "assay": "Plasma adiponectin level in REM sleep deprivation rat model (platform method), rat adiponectin ELISA", "type": "in vivo", "conditions": "SD rats, 30-hour REM sleep deprivation, oral 150 mg/kg thrice every 12 hours (300 mg/kg/day), vs. control group receiving distilled water, P<0.05 (Fisher's PLSD test)", "method": "SD rats (male, 10 to 11 weeks old) were divided into groups, each containing rats with similar body weights. A cylindrical platform (diameter: 6.0 cm, height: 2.5 cm) on which a rat can take a rest was placed in a cage, and water was added to the cage so that the water level was adjusted to 1 cm below the top of the platform. Each rat was reared for one to four days in the cage (one rat/cage). Rats of a rest group were reared in cages each containing a common floorcloth (N=4 for each group). In a chlorogenic acid administration experiment, rats were reared in cages for 30-hour REM sleep deprivation. Rats of a chlorogenic acid (5-CQA, product of Sigma) administration group orally received chlorogenic acid thrice every 12 hours by means of a probe (dose: 150 mg/kg (300 mg/kg/day)). Rats of a control group received distilled water. Rats of a rest group were reared in cages each containing a common floorcloth, and received distilled water (N=6 for each group). […] The plasma adiponectin level was determined by means of a rat adiponectin ELISA kit (product of ADIPOGEN®). Specifically, plasma was 1,000-fold diluted with a dilution buffer contained in the kit, and then plasma adiponectin level was determined according to the kit protocol."}
{"smiles": "O=C(/C=C/c1ccc(O)c(O)c1)O[C@@H]1C[C@](O)(C(=O)O)C[C@@H](O)[C@H]1O", "note": "[chlorogenic acid]", "values": [{"measurement": "Effect on reduction in plasma adiponectin level caused by REM sleep deprivation", "result": "significantly suppressed a reduction in plasma adiponectin level"}]}
